According to publication PMC12817916, “A small-molecule HSP90 inhibitor, NVP-HSP990, alleviates rotavirus infection” (Journal of Virology, 2025):

Test system: MA104 cells
Test: Cytotoxicity assay (CCK-8)
Type: cell-based, Rhesus monkey
Details: MA104 cells, 24 h, CCK-8; read-out: CC50
Experimental: To evaluate the cytotoxicity of different HSP90 inhibitors in vitro, 10,000 MA104 cells, 30,000 Caco-2 cells, and 80,000 HT-29 cells in 100 µL complete DMEM medium were seeded in 96-well plates and cultured at 37°C and 5% CO2 for 24 h to reach about 100% confluence, and a cell-free control was also set. After removing the initial medium, 100 µL of complete DMEM medium containing the indicated concentrations of drugs was added to each well, and the plates were incubated at 37°C and 5% CO2. Twenty-four hours later, the drug-containing medium was replaced with 100 µL fresh complete DMEM medium plus 10 µL 5 mM CCK-8 reagent (Beyotime, China), and OD450 absorbance of each well was detected 3 h later using a microplate reader (Gene Company Limited, China). Relative cell viability rate = OD450 (drug-treated cells − cell-free control) / OD450 (0 µM drug-treated cells − cell-free control).
The 50% cytotoxic concentration (CC50) values were determined by nonlinear regression (curve fit) analysis in GraphPad Prism 9.0 (GraphPad Software). Dose-response data (drug concentrations as X-axis and normalized cell viability percentages as Y-axis) were fitted to a Dose-response Inhibition model ("[Inhibitor] vs. normalized response-Variable slope"). The curve was constrained to a bottom limit of 0% viability. The CC50 value was automatically calculated as the X-intercept at Y=50%. Model adequacy was validated using goodness-of-fit metrics (R²≥0.95), 95% confidence intervals, and residual distribution analysis. Final CC50 values were derived from three independent biological replicates and reported as mean ± SEM.

## COc1cccc(-c2cc(F)ccc2[C@H]2Cc3nc(N)nc(C)c3C(=O)N2)n1 [NVP-HSP990]
  CC50: > 100 µM
